Patent publication US8853129B2 (Dow AgroSciences, LLC., priority 2010, dated 2014)

Assays:
Experiment in all cases: Herbicidal activity of mixtures under field conditions, residual weed control in grape crop
Type in all cases: in vivo
[1] = test system: black nightshade (Solanum nigrum; SOLNI); conditions: France, glyphosate tank mixed
Method: (§1) Trials were conducted under field conditions in France. Trial sites were located in commercially grown European grape crop (Vitis vinifera). The grapes were grown using normal cultural practices for fertilization, seeding, and maintenance to ensure good growth of the crop and the weeds. The trials were conducted using normal research methodology. Trial plots were between 2 to 4.5 meters (m) wide by 5.5 to 10 m long. […] The trial sites had naturally occurring populations of weeds. The weed spectrum included, but was not limited to, black nightshade (Solanum nigrum; SOLNI), common lambsquarter (Chenopodium album; CHEAL), common groundsel (Senecio vulgaris; SENVU), round-leaved […] spuria; KICSP) and common purslane (Portulaca olerace; POROL). […] Glyphosate was tank mixed with all treatments to provide complete foliar control of all weeds so that the residual weed control after application could be evaluated. The application volumes were between 150-325 liters per hectare (L/ha) of water. All application were made using precision gas hand sprayers using a 2 or 3 m boom using flat fan (80° or 110°) nozzles to broadcast the treatments on the soil. The treated plots and control plots were rated blind at various intervals after application. […] Data were collected for all trials and analyzed using various statistical methods. Colby's equation was used to determine the herbicidal effects expected from the mixtures (Colby, S. R. Calculation of the synergistic and antagonistic response of herbicide combinations. Weeds 1967, 15, 20-22). […] A=observed efficacy of active ingredient A at the same concentration as used in the mixture; B=observed efficacy of active ingredient B at the same concentration as used in the mixture.

[2] = test system: common groundsel (Senecio vulgaris; SENVU); conditions: penoxsulam 7 g ai/ha; 103 days after application, Fronton, France; glyphosate tank mixed
Method: as §1

[3] = test system: common lambsquarter (Chenopodium album; CHEAL); conditions: penoxsulam 7 g ai/ha; 109 DAA, Fronton, France; glyphosate tank mixed
Method: as §1

[4] = test system: common purslane (Portulaca oleracea; POROL); conditions: penoxsulam 7 g ai/ha; 103 days after application, Fronton, France; glyphosate tank mixed
Method: as §1

[5] = test system: round-leaved fluellen (Kickxia spuria; KICSP); conditions: penoxsulam 7 g ai/ha; 103 days after application, Fronton, France; glyphosate tank mixed
Method: as §1

## COc1cnc(OC)n2nc(NS(=O)(=O)c3c(OCC(F)F)cccc3C(F)(F)F)nc12 [Penoxsulam]
[1]; penoxsulam 5.6 g ai/ha, 56 DAA, Bourdic
  Percent Control SOLNI (1) Ob: 78%
[1]; penoxsulam 7 g ai/ha, 68 DAA, Eshallat
  Percent Control SOLNI (2) Ob: 17%
[2]
  Percent Control SENVU Ob: 27%
[3]
  Percent Control CHEAL Ob: 13%
[4]
  Percent Control POROL Ob: 0%
[5]
  Percent Control KICSP Ob: 0%
